Our source for the TGI and GI50 values is PubChem BioAssay (NCI).

Molecules are shown by their SMILES. Several values for one entry are separate records, joined by “and”; a condition that tells them apart may be missing. Equal values may be shown once.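 Compound exposure: 48 hours, 5 concentrations, 96-well plates. GI50 marks 50% less growth. The concentration for full growth arrest is given as TGI.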

Experiment in all cases: inhibition of tumour cell growth, NCI panel, 48 h
In experiment [1] the test system is HCT-116 colon.
The test system of experiment [2] is HCT-15 colon.
Experiment [3] deals with HT29 colon.
Experiment [4] relates to K-562 leukemia.
Experiment [5] has as its system MALME-3M melanoma.
The test system of experiment [6] is MCF7 breast.
In experiment [7] the test system is MDA-MB-231 breast.
For experiment [8], the system named is MDA-MB-435.
The test system of experiment [9] is MOLT-4 leukemia.
In experiment [10] the test system is NCI-H522 lung.
Experiment [11] concerns OVCAR-8 ovarian.

Take `Cc1ccc(/C=C/C(=N/NC(=O)N/N=C(/C=C/c2ccc(C)cc2)C(C)(C)CN2CCCCC2)C(C)(C)CN2CCCCC2)cc1`: the TGI in experiment [1] worked out at 2.64 µM; in [2], 3.25 µM; in experiment [3], 2.16 µM; in experiment [4], 1.68 µM; in experiment [5] it was 3.07 µM; in experiment [6], 2.83 µM. Also, the TGI is 3.22 µM in experiment [7]; 2.76 µM in experiment [8]; 0.345 µM in experiment [9]; 3.04 µM in experiment [10]; 2.88 µM in [11].

Regarding `C[C@]12[C@@H]3CC[C@H]1[C@@H](OC(=O)Nc1cc([N+](=O)[O-])cc([N+](=O)[O-])c1)C(=O)N2CC3`, the TGI in [1], in experiment [2], in experiment [3], in experiment [4], in experiment [5] and in experiment [6] was above 100 µM each time. The TGI in [7], in experiment [8], in experiment [9], in experiment [10] and in experiment [11] was above 100 µM throughout.

For the molecule `O=C(c1cccc(C(=O)c2ccc3c4c(cccc24)C(=O)N(c2ccccc2)C3=O)c1)c1ccc2c3c(cccc13)C(=O)N(c1ccccc1)C2=O`, the TGI in experiment [1], in experiment [2], in experiment [3], in experiment [4], in [5] and in experiment [6] was above 100 µM each time. Besides, the TGI in experiment [7], in [8], in [9], in experiment [10] and in [11] was above 100 µM in each case.

As to `C/C(=C\c1ccc(Cl)c(Cl)c1)[N+](=O)[O-]`, the GI50 in experiment [1] is 1.37 µM; in experiment [4], 0.731 µM; in [5] it was 1.61 µM; in experiment [8], 1.84 µM; in experiment [9], 2.58 µM; in experiment [11] it was 1.62 µM. In addition, the TGI in experiment [1] was 2.85 µM and 10.2 µM; in experiment [2], 4.13 µM and 3.18 µM; in [3] it was 5.9 µM; in experiment [5] it was 3.36 µM and 3.83 µM; in experiment [6] it was 17.3 µM; in [7], 3.94 µM. In addition, the TGI in experiment [8] was 3.71 µM and 4.55 µM; in experiment [9] it was above 100 µM; in experiment [10], 3.14 µM; in experiment [11], 3.4 µM.

On to `CCOC(=O)/C=C(/C(=O)OCC)n1ccc(=O)n(/C(=C/C(=O)OCC)C(=O)OCC)c1=O`, for which the TGI in [1] stood at 6.88 µM; in [2], 6.32 µM; in experiment [3], 26.8 µM; in [4] it was 10.3 µM; in experiment [5] it was 8.15 µM; in experiment [6], 19.9 µM. In addition, the TGI amounted to 31.9 µM in [7]; 22.1 µM in experiment [8]; 3.84 µM in experiment [9]; 3.53 µM in experiment [10]; 23.2 µM in [11].

On to `C=CC(C)CCC(C/C=C(\C)CCC=C(C)C)C(=C)CCCC(C)C` (stereo not given), for which the TGI in experiment [1], in experiment [2], in experiment [3], in [4], in [5] and in [6] was above 100 µM in each case. For the same molecule, the TGI in experiment [7], in [8], in experiment [9], in experiment [10] and in experiment [11] was above 100 µM in each case.

In the case of `N#CC(Cc1ccccc1Br)N(CCC1=CCCCC1)C(c1ccccc1)c1ccccc1` (stereo not given), the TGI in [1], in experiment [2], in experiment [3], in experiment [4], in experiment [5] and in experiment [6] was above 100 µM each time. For the same molecule, the TGI in experiment [7] is above 100 µM; in experiment [8], above 100 µM; in experiment [9] it was above 100 µM; in experiment [10] it was 87 µM; in experiment [11], above 100 µM.

Regarding `C=CCOC(=O)[C@@H]1C[C@@H](OC(C)(C)C)CN1C(=O)[C@@H]1[C@H]2OC(C)(C)O[C@H]2CN1C(=O)OCC1c2ccccc2-c2ccccc21`, the TGI was 31.8 µM in [1]; 39.4 µM in [2]; 33.1 µM in experiment [3]; above 56.9 µM in [4]; 39.2 µM in experiment [5]; above 100 µM in experiment [6]. Besides, the TGI is 33.1 µM in experiment [7]; 34.7 µM in experiment [8]; 34.4 µM in experiment [9]; 1.39 µM in [10]; 15.3 µM in experiment [11].

Consider `C=C1C(=O)O[C@H]2[C@H]1CC(=O)/C(C)=C/CC[C@@]1(C)O[C@@H]21`, for which the TGI in [1] turned out to be 2.51 µM; in [2] it was 1.56 µM; in experiment [3], 4.53 µM; in experiment [4] it was 1.68 µM; in experiment [5], 3.48 µM; in experiment [6], 1.99 µM. The TGI in experiment [7] amounted to 3.5 µM; in experiment [8], 5.43 µM; in experiment [9], 1.13 µM; in [10] it was 0.729 µM; in experiment [11] it was 7.47 µM. The GI50 in experiment [4] was 0.368 µM; in experiment [9] it was 0.276 µM.

For the molecule `O=C(c1ccccc1)c1sc2c(=O)c(C(=O)c3ccccc3)c(C(=O)c3ccccc3)sc2c(=O)c1C(=O)c1ccccc1`, the TGI in experiment [1], in experiment [2], in experiment [3], in [4], in experiment [5] and in experiment [6] was above 100 µM each time. In addition, the TGI in experiment [7] was above 100 µM; in experiment [8], 70.9 µM; in [9], above 100 µM; in experiment [10], 38.6 µM; in experiment [11] it was above 100 µM.

Consider `COc1cc2cc(C(=O)N3CC(CCl)c4ccccc43)[nH]c2c(OC)c1OC` (stereo not given), for which the TGI in experiment [1] was above 100 µM; in experiment [2] it was above 100 µM; in experiment [3], above 57.9 µM; in [4], above 41.3 µM; in experiment [5] it was above 100 µM; in experiment [6], above 100 µM. The TGI in [7], in experiment [8], in experiment [9], in experiment [10] and in experiment [11] was above 100 µM in each case.

Consider `Cc1cn(C2CC(N)C(C(=O)O)O2)c(=O)[nH]c1=O` (stereo not given), for which the TGI in experiment [1], in experiment [2], in [3], in experiment [4], in experiment [5] and in experiment [6] was above 100 µM throughout. In addition, the TGI in experiment [7], in experiment [8], in experiment [9], in experiment [10] and in experiment [11] was above 100 µM throughout.

On to `COc1cc(/C=C/c2cc(/C=C/c3ccc(O)c(OC)c3)oc(=O)c2)ccc1O`, for which the TGI in experiment [1] is above 65.8 µM; in experiment [2] it was above 34.4 µM; in experiment [3] it was above 22.6 µM; in experiment [4] it was above 28 µM; in [5], 10.7 µM; in experiment [6], above 100 µM. For the same molecule, the TGI in [7] is above 96.2 µM; in experiment [8], 22.5 µM; in experiment [9] it was above 26.2 µM; in [10], above 23.9 µM; in experiment [11], above 100 µM.

With `O=C(NC(Nc1ccc(F)c(Cl)c1)(C(F)(F)F)C(F)(F)F)OCc1ccccc1`, the TGI in [1] was above 100 µM; in [2], 94.5 µM; in experiment [3] it was above 100 µM; in [4], above 100 µM; in [5] it was above 100 µM; in experiment [6], 38.1 µM. Further, the TGI was 33.5 µM in [7]; above 100 µM in [8]; 89.1 µM in experiment [9]; 42.1 µM in experiment [10]; above 100 µM in [11].

On to `C=CC[C@@]1(C)CCCCCCCCC[C@@](C)(CC=C)C1=O`, for which the TGI in experiment [1] was above 100 µM; in experiment [2] it was above 100 µM; in experiment [3], 38.2 µM; in [4] it was 74.5 µM; in experiment [5], 58.1 µM; in [6], above 100 µM. The TGI in experiment [7] is 80.9 µM; in experiment [8], above 100 µM; in experiment [9] it was 43.2 µM; in experiment [10], 59.4 µM; in experiment [11] it was 57.9 µM.

Regarding `C/C=C/C(=O)N1C(=O)OC[C@@H]1c1ccccc1`, the TGI in experiment [1] is 38.1 µM; in experiment [2], 53.8 µM; in experiment [3] it was 33.7 µM; in experiment [4] it was 56 µM; in [5], 39.7 µM; in experiment [6] it was 31.5 µM. For the same molecule, the TGI in experiment [7] was found to be 39.8 µM; in experiment [8], 70 µM; in experiment [9], 47.3 µM; in experiment [10], 39.1 µM; in [11], 38.5 µM.

Regarding `COc1cc2c(cc1OCc1ccccc1)NC(=S)[C@@H]1CCCN1C2=S`, the TGI in [1], in [2], in experiment [3], in experiment [4], in [5] and in experiment [6] was above 100 µM throughout. Also, the TGI in [7], in experiment [8], in experiment [9], in experiment [10] and in experiment [11] was above 100 µM throughout.

In the case of `N#CCCN(CCN(C(=O)Nc1ccccc1)c1ccccc1)C(=O)Nc1ccccc1`, the TGI in experiment [1] was above 100 µM; in [2], above 100 µM; in experiment [3], above 100 µM; in experiment [4] it was above 92.1 µM; in experiment [5], above 100 µM; in experiment [6], above 100 µM. In addition, the TGI in experiment [7] was above 100 µM; in experiment [8], above 100 µM; in experiment [9], above 84.5 µM; in experiment [10] it was above 100 µM; in [11], above 100 µM.

With `COc1cccc(C2C3=C(COC3=O)Oc3cc4c(cc32)OCO4)c1` (stereo not given), the TGI in experiment [1] is above 31.6 µM; in [2], above 42.4 µM; in [3] it was 1.3 µM; in experiment [4] it was 6.11 µM; in experiment [5] it was above 100 µM; in experiment [6], above 100 µM. The TGI in experiment [7] was above 43.3 µM; in [8], 0.0817 µM; in experiment [9], 14.1 µM; in [10] it was 0.0596 µM; in experiment [11] it was 20 µM.

In the case of `CCc1c(Cc2cc(C)cc(C)c2)n2c(nc1=O)SCC2CBr` (stereo not given), the TGI in experiment [1], in experiment [2], in experiment [3], in experiment [4], in [5] and in experiment [6] was above 50 µM in each case. Besides, the TGI in [7] is above 50 µM; in [8], above 50 µM; in [9], above 50 µM; in experiment [10], above 50 µM; in experiment [11] it was 40.4 µM.

Consider `O=C(O)c1ccccc1/C=N/NC1=NCCCCN1`, for which the TGI in experiment [1], in experiment [2], in experiment [3], in experiment [4], in [5] and in [6] was above 100 µM in each case. The TGI in [7], in experiment [8], in [9], in experiment [10] and in [11] was above 100 µM in each case.

In the case of `COc1ccc(C2SC(C)C(=O)N2c2nc(-c3nc(-c4ccc(Cl)cc4)cs3)cs2)cc1` (stereo not given), the TGI in experiment [1], in [2], in experiment [3], in experiment [4], in experiment [5] and in experiment [6] was above 100 µM in each case. The TGI in experiment [7], in experiment [8], in [9], in [10] and in [11] was above 100 µM throughout.

For the molecule `COc1cc2c(cc1O)[C@@H]1Cc3c(cc(OC)c(OC)c3Oc3cc4c(cc3OC)CCN(C)[C@@H]4Cc3ccc(O)cc3)[C@H](C2)N1C`, the TGI in experiment [1] is above 100 µM; in [2] it was above 100 µM; in experiment [3] it was above 100 µM; in [4], 45.8 µM; in experiment [5] it was 32.2 µM; in experiment [6], above 100 µM. Besides, the TGI in experiment [7] is 98.2 µM; in [8], 40.8 µM; in experiment [9], above 90.5 µM; in [10], 67 µM; in experiment [11], above 100 µM.
